Assay results taken from the RepoRT retention time repository (doi:10.1007/s11356-017-9929-x).

Experiment: RP, GL Sciences Inertsil ODS-4, 150 × 2.1 mm, 3 µm, 40 °C, 0.3 mL/min, estimated dead time 1.1 min; A: water + 5 mM ammonium acetate; B: methanol + 5 mM ammonium acetate; gradient (min/%B) 0/5 30/95 50/95
Conditions: stereoisomer not certain
For CCOc1ccc(NC(C)=O)cc1, the LC retention time was 18.5 min.
COC(=O)NN=Cc1c[n+]([O-])c2ccccc2[n+]1[O-] gave an LC retention time of 15 min.
With [2H]C([2H])([2H])N(C(=O)Oc1nc(N(C)C)nc(C)c1C)C([2H])([2H])[2H] the LC retention time was 22.8 min.
With CC(Oc1ccc2ccccc2c1)C(=O)Nc1ccccc1 (centres undefined) the LC retention time was 28.8 min.
Compound CN=C(NC#N)NCCSCc1nc[nH]c1C has an LC retention time of 13.3 min.
Compound CC(=O)CC(c1ccccc1)c1c(O)c2ccccc2oc1=O (centres undefined) has an LC retention time of 19.1 min.
In the case of CC(C)NCC(O)COc1cccc2[nH]c3ccccc3c12 (centres undefined), the LC retention time is reported as 20 min.
CCOc1nc(NC)nc(NC(=O)NS(=O)(=O)c2ccccc2C(=O)OC)n1 gave an LC retention time of 17.7 min.
Work on CN(C)CCCN1c2ccccc2CCc2ccccc21 yielded an LC retention time of 26 min.
In the case of COC(=O)c1sccc1S(=O)(=O)NC(=O)Nc1nc(C)nc(OC)n1, the LC retention time is reported as 13.9 min.
For CCNc1nc(NC(C)C)nc(SC)n1, the LC retention time was 25.9 min.
For CCOC(=O)c1cnn(C)c1S(=O)(=O)NC(=O)Nc1nc(OC)cc(OC)n1, the LC retention time was 18.2 min.
CCCCOC(=O)N(C)SN(C)C(=O)Oc1cccc2c1OC(C)(C)C2 gave an LC retention time of 31.5 min.
[2H]C([2H])([2H])OP(N)(=O)SC([2H])([2H])[2H] (centres undefined) gave an LC retention time of 4.22 min.
For CC(C)NCC(O)COc1ccc(CCOCC2CC2)cc1 (centres undefined), the LC retention time was 21.6 min.
With COCCOc1ccccc1S(=O)(=O)NC(=O)Nc1nc(OC)nc(OC)n1 the LC retention time was 15.5 min.
In the case of COc1cc(NS(=O)(=O)c2ccc(N)cc2)ncn1, the LC retention time is reported as 11.8 min.
COP(=O)(OC)Oc1ccc(S(C)=O)c(C)c1 (centres undefined) gave an LC retention time of 16.9 min.
In the case of CSc1nnc(C(C)(C)C)c(=O)n1N, the LC retention time is reported as 20.6 min.
For CCCC1CC(C(=O)NC(C(C)O)C2OC(SC)C(O)C(O)C2O)N(C)C1 (centres undefined), the LC retention time was 21 min.
In the case of CC(C(O)c1ccc(O)cc1)N1CCC(Cc2ccccc2)CC1 (centres undefined), the LC retention time is reported as 21 min.
Work on CCCCNC(=O)NS(=O)(=O)c1ccc(C)cc1 yielded an LC retention time of 19.6 min.
Work on COc1cc(OC)nc(NC(=O)NS(=O)(=O)c2cc(NC=O)ccc2C(=O)N(C)C)n1 yielded an LC retention time of 15.9 min.
In the case of CNC(=O)N(C)c1nnc(C(C)(C)C)s1, the LC retention time is reported as 21.7 min.
CCC1CCCC(OC2CCC(N(C)C)C(C)O2)C(C)C(=O)C2=CC3C(C=C(C)C4CC(OC5OC(C)C(OC)C(OC)C5OC)CC43)C2CC(=O)O1 (centres undefined) showed an LC retention time of 34.9 min.
Compound CN(C)C(=O)Nc1cc(C(C)(C)C)on1 has an LC retention time of 21.6 min.
In the case of CC12C=CC(=O)C=C1CCC1C2C(O)CC2(C)C1CCC2(O)C(=O)CO (centres undefined), the LC retention time is reported as 22.2 min.
CCC1OC(=O)C(C)C(OC2CC(C)(OC)C(O)C(C)O2)C(C)C(OC2OC(C)CC(N(C)C)C2O)C(C)(O)CC(C)C(=O)C(C)C(O)C1(C)O (centres undefined) gave an LC retention time of 25.5 min.
Compound COc1ccc(CCN(C)CCCC(C#N)(c2ccc(OC)c(OC)c2)C(C)C)cc1OC (centres undefined) has an LC retention time of 26.7 min.
In the case of CC1=NNC(=O)N(N=Cc2cccnc2)C1, the LC retention time is reported as 13 min.
For Nc1ccc(S(=O)(=O)Nc2ncccn2)cc1, the LC retention time was 8.05 min.
With COCCc1ccc(OCC(O)CNC(C)C)cc1 (centres undefined) the LC retention time was 17.8 min.
With CCC(C)c1ccccc1OC(=O)NC (centres undefined) the LC retention time was 25.2 min.
Work on COC(=O)c1ccc(CNS(C)(=O)=O)cc1S(=O)(=O)NC(=O)Nc1nc(OC)cc(OC)n1 yielded an LC retention time of 17.4 min.
With CN(C)CCC=C1c2ccccc2CCc2ccccc21 the LC retention time was 28.1 min.
Work on CCS(=O)(=O)c1nc2ccccn2c1S(=O)(=O)NC(=O)Nc1nc(OC)cc(OC)n1 yielded an LC retention time of 16.3 min.
[2H]c1c([2H])c(S(=O)(=O)Nc2cc(C)on2)c([2H])c([2H])c1N gave an LC retention time of 9.83 min.
Compound CN1CCN(CC(=O)N2c3ccccc3C(=O)Nc3cccnc32)CC1 has an LC retention time of 15.8 min.
For COc1cc(NS(=O)(=O)c2ccc(N)cc2)nc(OC)n1, the LC retention time was 15.5 min.
For COC=C(C(=O)OC)c1ccccc1Oc1cc(Oc2ccccc2C#N)ncn1, the LC retention time was 26.1 min.
COc1ccc2c(c1)C13CCCCC1C(C2)N(C)CC3 (centres undefined) gave an LC retention time of 24.2 min.
For CC#Cc1cc(C)nc(Nc2ccccc2)n1, the LC retention time was 28.1 min.
COc1cc(OC)nc(NC(=O)NS(=O)(=O)c2c(-c3nnn(C)n3)cnn2C)n1 gave an LC retention time of 14.7 min.
With [2H]C([2H])([2H])NC(=O)Oc1cccc2c1OC(C)(C)C2 the LC retention time was 20.5 min.
With Nc1ccc(S(=O)(=O)Nc2nccs2)cc1 the LC retention time was 10.6 min.
[2H]C([2H])([2H])Oc1cc(NS(=O)(=O)c2ccc(N)cc2)nc(OC([2H])([2H])[2H])n1 showed an LC retention time of 15.1 min.
In the case of CCCC(=NOCC)C1=C(O)CC(CC(C)SCC)CC1=O (centres undefined), the LC retention time is reported as 25.6 min.
With CSc1nc(NC(C)C)nc(NC(C)C)n1 the LC retention time was 27.6 min.
CC(C)(C)NCC(O)c1cc(O)cc(O)c1 (centres undefined) gave an LC retention time of 8.97 min.
